The values below come from patent US9499495B2, “Quinazolines and azaquinazolines as dual inhibitors of RAS/RAF/MEK/ERK and PI3K/AKT/PTEN/mTOR pathways” (Asana Biosciences, LLC, priority 2013, dated 2016).

One assay deals with T1, PI3Kα (Homo sapiens, UniProt P42336).
T1 construct: made in house; host or cells: SF9 cells
Briefly: PI3 Kinase alpha TR-FRET assay. Type of assay: biochemical. The method, boiled down:
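Purified Sf9-expressed p110/p85α (5 ng) was pre-incubated with compound and PIP2 at rt, then ATP was added (PIP2 and ATP both 40 μM) for a 30 min reaction. PIP3 was detected by TR-FRET displacement of biotin-PIP3, and IC50 was taken from dose-response curves of the 665/615 nm emission ratio.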
(In TR-FRET formats the signal depends on donor and acceptor labels being close together.)

The next assay concerns the target T2, mTOR kinase (Homo sapiens, UniProt P42345).
T2 construct: purchased Millipore, US
The experiment in a line: mTOR kinase TR-FRET assay. Type of assay: biochemical. The gist of the method: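 TR-FRET with ULight-p70 S6K (Thr 389) peptide (50 nM) and 20 μM ATP in 50 mM HEPES pH 7.5, 1 mM EGTA, 3 mM MnCl2; compound pre-incubated with enzyme before substrate addition, reaction at rt, EDTA-stopped. Eu anti-phospho antibody read 665/615 nm; IC50 from sigmoidal dose-response fit.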

The next assay concerns pERK in A375 cells. Briefly: In Cell Western (ICW) assay, pERK in A375 cells. The format is cell-based. The note with it: Homo sapiens, A-375, 3 h treatment. The method, boiled down: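 After a 3 h compound treatment at 37 °C, fixed RKO or A375 cells were probed for phospho-ERK1/2 (T202/Y204), phospho-S6RP or phospho-AKT T308 and detected with a Eu-tagged anti-rabbit antibody (ex 340/em 615 nm), with Hoechst signal as the cell-number correction. Inhibition was referenced to DMSO, and IC50 values came from sigmoidal dose-response curves.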

T2 sequence (P42345 1362-2549 limits assumed): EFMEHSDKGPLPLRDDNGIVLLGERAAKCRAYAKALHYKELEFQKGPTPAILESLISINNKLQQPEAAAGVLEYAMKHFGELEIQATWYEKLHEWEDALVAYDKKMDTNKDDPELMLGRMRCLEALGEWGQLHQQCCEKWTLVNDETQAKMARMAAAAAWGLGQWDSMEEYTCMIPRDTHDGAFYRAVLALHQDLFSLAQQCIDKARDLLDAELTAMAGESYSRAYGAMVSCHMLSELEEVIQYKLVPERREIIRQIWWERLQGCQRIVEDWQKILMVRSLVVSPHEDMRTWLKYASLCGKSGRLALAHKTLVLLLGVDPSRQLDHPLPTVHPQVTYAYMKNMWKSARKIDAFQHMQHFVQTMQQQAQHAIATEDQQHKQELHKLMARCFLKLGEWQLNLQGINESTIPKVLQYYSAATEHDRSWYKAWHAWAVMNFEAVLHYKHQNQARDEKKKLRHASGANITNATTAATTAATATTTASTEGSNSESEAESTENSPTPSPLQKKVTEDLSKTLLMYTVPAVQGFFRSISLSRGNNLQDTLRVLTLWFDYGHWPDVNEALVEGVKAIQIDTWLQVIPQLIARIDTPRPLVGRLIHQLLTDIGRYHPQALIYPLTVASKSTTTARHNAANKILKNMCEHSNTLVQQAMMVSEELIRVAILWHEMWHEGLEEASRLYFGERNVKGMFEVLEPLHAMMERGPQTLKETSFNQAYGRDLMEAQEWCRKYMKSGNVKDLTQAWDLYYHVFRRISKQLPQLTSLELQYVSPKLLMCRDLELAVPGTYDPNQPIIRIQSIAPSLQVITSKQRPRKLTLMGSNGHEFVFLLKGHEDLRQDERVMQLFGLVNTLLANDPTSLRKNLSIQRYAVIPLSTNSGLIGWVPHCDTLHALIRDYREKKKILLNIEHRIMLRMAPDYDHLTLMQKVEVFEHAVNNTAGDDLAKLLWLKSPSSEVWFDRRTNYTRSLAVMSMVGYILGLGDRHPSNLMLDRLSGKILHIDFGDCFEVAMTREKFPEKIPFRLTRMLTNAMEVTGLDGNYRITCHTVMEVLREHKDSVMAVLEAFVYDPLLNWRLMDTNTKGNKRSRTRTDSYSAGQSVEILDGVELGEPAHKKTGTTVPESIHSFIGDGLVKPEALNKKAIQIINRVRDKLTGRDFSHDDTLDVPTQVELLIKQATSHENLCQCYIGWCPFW
T1 sequence (P42336 whole entry, species assumed): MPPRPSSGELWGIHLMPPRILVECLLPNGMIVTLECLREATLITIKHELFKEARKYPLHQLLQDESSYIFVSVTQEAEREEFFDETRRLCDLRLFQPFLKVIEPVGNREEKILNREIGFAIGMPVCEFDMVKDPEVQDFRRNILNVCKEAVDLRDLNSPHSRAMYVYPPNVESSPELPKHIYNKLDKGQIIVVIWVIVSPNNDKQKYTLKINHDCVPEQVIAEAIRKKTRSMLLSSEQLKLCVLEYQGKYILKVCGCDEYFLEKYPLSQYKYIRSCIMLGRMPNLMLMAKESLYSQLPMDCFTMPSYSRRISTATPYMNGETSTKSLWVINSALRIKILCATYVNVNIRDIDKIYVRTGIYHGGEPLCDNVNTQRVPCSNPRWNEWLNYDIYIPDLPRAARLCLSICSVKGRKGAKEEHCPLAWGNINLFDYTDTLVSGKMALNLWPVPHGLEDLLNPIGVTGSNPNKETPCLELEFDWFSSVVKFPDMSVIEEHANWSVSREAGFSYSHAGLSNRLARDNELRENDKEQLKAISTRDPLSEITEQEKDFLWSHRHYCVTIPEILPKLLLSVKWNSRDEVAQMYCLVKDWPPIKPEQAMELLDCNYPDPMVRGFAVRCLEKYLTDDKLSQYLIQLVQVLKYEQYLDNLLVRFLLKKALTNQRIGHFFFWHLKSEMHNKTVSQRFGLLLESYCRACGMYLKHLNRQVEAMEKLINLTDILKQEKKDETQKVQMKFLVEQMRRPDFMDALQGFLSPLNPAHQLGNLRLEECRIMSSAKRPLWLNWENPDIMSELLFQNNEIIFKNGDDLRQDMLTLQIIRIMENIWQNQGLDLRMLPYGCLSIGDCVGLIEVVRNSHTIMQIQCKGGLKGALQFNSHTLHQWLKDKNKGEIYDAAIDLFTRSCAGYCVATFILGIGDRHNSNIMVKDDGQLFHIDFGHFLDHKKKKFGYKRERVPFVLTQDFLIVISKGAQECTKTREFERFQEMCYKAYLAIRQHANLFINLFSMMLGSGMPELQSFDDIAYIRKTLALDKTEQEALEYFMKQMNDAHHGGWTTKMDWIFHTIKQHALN
T1 sequence (P27986 whole entry partner, species assumed): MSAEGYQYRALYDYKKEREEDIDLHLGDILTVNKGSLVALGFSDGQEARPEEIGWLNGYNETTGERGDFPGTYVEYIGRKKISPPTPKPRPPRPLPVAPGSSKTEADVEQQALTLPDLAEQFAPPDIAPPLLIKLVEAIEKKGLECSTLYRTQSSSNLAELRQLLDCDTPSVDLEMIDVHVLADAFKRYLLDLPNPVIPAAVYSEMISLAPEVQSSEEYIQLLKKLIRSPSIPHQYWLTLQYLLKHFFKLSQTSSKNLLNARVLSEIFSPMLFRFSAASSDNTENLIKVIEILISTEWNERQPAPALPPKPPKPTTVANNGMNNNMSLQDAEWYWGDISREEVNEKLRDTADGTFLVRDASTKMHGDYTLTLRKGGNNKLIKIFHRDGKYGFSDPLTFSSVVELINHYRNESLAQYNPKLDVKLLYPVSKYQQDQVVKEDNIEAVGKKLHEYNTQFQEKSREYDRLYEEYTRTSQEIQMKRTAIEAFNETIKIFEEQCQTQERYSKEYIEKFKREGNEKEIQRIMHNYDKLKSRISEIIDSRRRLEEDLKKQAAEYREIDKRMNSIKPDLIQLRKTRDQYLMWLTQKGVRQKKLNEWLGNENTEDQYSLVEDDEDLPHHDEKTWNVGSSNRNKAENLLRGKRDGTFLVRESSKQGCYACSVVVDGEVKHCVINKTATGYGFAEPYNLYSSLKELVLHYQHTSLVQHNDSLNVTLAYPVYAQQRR

One may read the IC50 as the point on the concentration scale where inhibition reaches its midpoint. A low value points to greater potency. As for `Nc1ccc(-c2nc(N3CCOCC3)c3nc(-c4cccc(NS(=O)(=O)c5cc(F)ccc5F)c4F)ccc3n2)cn1` [Example 92, N-(3-(2-(6-aminopyridin-3-yl)-4-morpholinopyrido[3,2-d]pyrimidin-6-yl)-2-fluorophenyl)-2,5-difluorobenzenesulfonamide], the IC50 at PI3Kα lay in the range of 1 to 100 nM; against mTOR kinase, 100 to 1000 nM; in the assay with pERK in A375 cells it was 1 to 100 nM.

In the case of `Nc1ccc(-c2nc(N3CCOCC3)c3nc(-c4cccc(NS(=O)(=O)c5c(F)cccc5F)c4F)ccc3n2)cn1` [Example 95, N-(3-(2-(6-aminopyridin-3-yl)-4-morpholinopyrido[3,2-d]pyrimidin-6-yl)-2-fluorophenyl)-2,6-difluorobenzenesulfonamide], the IC50 against PI3Kα fell in the range of 100 to 1000 nM; on mTOR kinase, 1 to 100 nM; in the assay on pERK in A375 cells, 100 to 1000 nM.

Consider `CNc1ccc(-c2nc(N3CCOCC3)c3nc(-c4cccc(NS(=O)(=O)CCCF)c4F)ccc3n2)cn1` [Example 113, 3-fluoro-N-(2-fluoro-3-(2-(6-(methylamino)pyridin-3-yl)-4-morpholinopyrido[3,2-d]pyrimidin-6-yl)phenyl)propane-1-sulfonamide], for which the 50% inhibitory concentration (IC50) against PI3Kα, against mTOR kinase and in the assay with pERK in A375 cells was 1 to 100 nM in each case.

With `COc1cc2nc(-c3cnc(N)nc3)nc(N3CCOCC3)c2cc1-c1cccc(NS(=O)(=O)CCCF)c1F` [Example 11, N-(3-(2-(2-aminopyrimidin-5-yl)-7-methoxy-4-morpholinoquinazolin-6-yl)-2-fluorophenyl)-3-fluoropropane-1-sulfonamide], the IC50 was 100 to 1000 nM on PI3Kα, 1 to 100 nM against mTOR kinase and 1 to 100 nM in the assay on pERK in A375 cells.

For the compound `Nc1ncc(-c2nc(N3CCOCC3)c3nc(-c4cccc(NS(=O)(=O)CCCF)c4F)ccc3n2)cn1` [Example 87, N-(3-(2-(2-aminopyrimidin-5-yl)-4-morpholinopyrido[3,2-d]pyrimidin-6-yl)-2-fluorophenyl)-3-fluoropropane-1-sulfonamide], the IC50 against PI3Kα was 1 to 100 nM; against mTOR kinase it was 1 to 100 nM; in the assay with pERK in A375 cells, 100 to 1000 nM.

Turning to `Cc1cc(-c2nc(N3CCOCC3)c3nc(-c4cccc(NS(=O)(=O)CCCF)c4F)ccc3n2)cnc1N` [Example 90, N-(3-(2-(6-amino-5-methylpyridin-3-yl)-4-morpholinopyrido[3,2-d]pyrimidin-6-yl)-2-fluorophenyl)-3-fluoropropane-1-sulfonamide], the IC50 at PI3Kα, against mTOR kinase and in the assay with pERK in A375 cells was 100 to 1000 nM each time.
